Results reported in patent US20210330611A1, “THERAPY FOR NEUROLOGICAL DISEASES/DISORDERS” (priority 2020, published 2021).
Read-outs that look alike come from different tables or passages of the source.

What was measured:
[1] = test system: fibrin- and LPS-induced microglia activation; experiment: cells; format: cell-based, rat
primary rat microglia [2] = experiment: Cell toxicity (dead cells, size <150 μm2) in coated fibrin (cFib) assay; details: primary microglia HTS;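 further: share of dead cells sized under 150 µm2 at 10 µM in fibrin-stimulated microglia HTS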
[3] = test system: LPS-induced microglia activation; experiment: Image-based assay of LPS-induced microglia activation (HTS and dose response); format: cell-based, rat; details: for inhibition at 10 µM: Rattus norvegicus, Microglia, read-out: LPS % inhibition
primary rat microglia [4] = test system: primary rat microglia
[5] = test system: fibrin-induced microglia activation; experiment: Image-based assay of fibrin-induced microglia activation (HTS and dose response); format: cell-based, rat; details: primary microglia HTS, fibrin stimulation; for inhibition at 10 µM: Rattus norvegicus, Microglia, read-out: Fibrin % inhibition
[6] = quadrant by fibrin and LPS inhibition, HTS at 10 μM
[7] = fibrin assay, dead cells (size <150 μm2)
[8] = primary microglia HTS, LPS stimulation, compounds at 10 μM
[9] = classification by fibrin and LPS inhibition, HTS at 10 μM
[10] = fibrin assay, dead cells (size <150 μm2), compounds at 10 μM
[11] = classification by fibrin and LPS inhibition in HTS
[12] = fibrin stimulation, cell size <150 μm2 as marker of toxicity
[13] = cell size >800 μm2 as marker of activation

Row | SMILES | inhibition at 10 µM [3, 8] | LPS % cell toxicity (primary rat microglia [4]; rat) | inhibition at 10 µM ([5]; compounds at 10 μM) | Quadrant (FIG. 5b) [1, 9] | Fibrin % cell toxicity (primary rat microglia [2]; [10]) | further results
1 | COCCCOc1cc(C[C@@H](C[C@H](N)[C@@H](O)C[C@H](C(=O)NCC(C)(C)C(N)=O)C(C)C)C(C)C)ccc1OC [Aliskiren] | 21% | 0% | 2% |  |  | Quadrant (FIG. 5b) [1, 6]: Q4; Fibrin % cell toxicity (primary rat microglia [2]; [7]): 1%
2 | CC(=O)Nc1cccc(O)c1 [3-acetamidophenol] | 5% | 0% | 4% |  |  | Quadrant (FIG. 5b) [1, 6]: Q4; Fibrin % cell toxicity (primary rat microglia [2]; [7]): 1%
3 | CCOC(=S)SSC(=S)OCC [Dixanthogen] | 17% | 0% | 4% | Q4 | 1% | 
4 | CC(=O)N[C@@H](CC(=O)N[C@@H](CCC(=O)O)C(=O)O)C(=O)O [Spaglumic Acid] |  | 0% |  |  |  | Quadrant (FIG. 5b) [1, 11]: Q4; Fibrin % cell toxicity (primary rat microglia [2]; [12]): 1%; inhibition at 10 µM ([3]; 48 h): 15%; inhibition at 10 µM [5, 13]: -15%
5 | CC1(C)S[C@@H]2[C@H](NC(=O)COc3ccccc3)C(=O)N2[C@H]1C(=O)O [Phenoxymethylpenicillin] |  | 0% |  |  |  | Quadrant (FIG. 5b) [1, 11]: Q4; Fibrin % cell toxicity (primary rat microglia [2]; [12]): 1%; inhibition at 10 µM ([3]; 48 h): 14%; inhibition at 10 µM [5, 13]: 0%
6 | Oc1c(I)cc(I)c2cccnc12 [Diiodohydroxyquinoline] | 22% | 0% | -6% | Q4 | 1% | 
7 | O=C(O)CN(CCN(CC(=O)O)CC(=O)O)CCN(CC(=O)O)CC(=O)O |  |  |  |  |  | Quadrant (FIG. 5b) [1, 11]: Q4; Fibrin % cell toxicity (primary rat microglia [2]; [12]): 0%; LPS % inhibition [3]: −2%; LPS % cell toxicity (primary rat microglia [4]): 0%; Fibrin % inhibition [5, 13]: 11%
8 | CC(=O)OC/C=C(C)/C=C/C=C(C)/C=C/C1=C(C)CCCC1(C)C [Retinyl Acetate] |  | 0% |  |  |  | Quadrant (FIG. 5b) [1, 11]: Q4; Fibrin % cell toxicity (primary rat microglia [2]; [12]): 1%; inhibition at 10 µM ([3]; 48 h): 15%; inhibition at 10 µM [5, 13]: 3%
9 | Nc1ccc(C(=O)O)cc1 [4-Aminobenzoic Acid] | 13% | 1% | -31% |  |  | Quadrant (FIG. 5b) [1, 6]: Q4; Fibrin % cell toxicity (primary rat microglia [2]; [7]): 1%
10 | CC(C)Nc1cccnc1N1CCN(C(=O)c2cc3cc(NS(C)(=O)=O)ccc3[nH]2)CC1 [Delavirdine] | 9% | 1% | -11% | Q4 | 1% | 
11 | c1ccc2c(c1)sc1ccccc12 [Dibenzothiophene] | 14% | 0% | -21% | Q4 | 0% | 
12 | C[C@]12CC[C@H]3C(=CCc4cc(O)ccc43)[C@@H]1CCC2=O [Equilin] | 15% | 0% | 1% | Q4 | 0% | 
13 | CCN(CC)C(C)CN1c2ccccc2Sc2ccccc21 (stereo not drawn) [Ethopropazine] | 30% | 0% | 31% | Q4 | 1% | 
14 | C[C@H](CCC(=O)[O-])[C@H]1CC[C@H]2[C@@H]3C(=O)C[C@@H]4CC(=O)CC[C@]4(C)[C@H]3CC(=O)[C@]12C.[Na+] |  |  |  |  |  | Quadrant (FIG. 5b) [1, 11]: Q4; Fibrin % cell toxicity (primary rat microglia [2]; [12]): 1%; LPS % inhibition [3]: 28%; LPS % cell toxicity (primary rat microglia [4]): 1%; Fibrin % inhibition [5, 13]: 21%
15 | Nc1cc(-c2ccncc2)c[nH]c1=O [Amrinone, Inamrinone] |  |  |  |  |  | Quadrant (FIG. 5b) [1, 6]: Q4; Fibrin % cell toxicity (primary rat microglia [2]; [7]): 1%; LPS % inhibition [3, 8]: 18%; LPS % cell toxicity (primary rat microglia [4]): 0%; Fibrin % inhibition ([5]; compounds at 10 μM): 1%
16 | CCN(CC)C(=O)N1CCN(C)CC1 [Diethylcarbamazine] | 11% | 0% | -26% | Q4 | 0% | 
17 | CC1(C)C2CCC1(CS(=O)(=O)O)C(=O)C2=Cc1ccc(C=C2C(=O)C3(CS(=O)(=O)O)CCC2C3(C)C)cc1 [Ecamsule] |  |  |  | Q4 | 1% | LPS % inhibition [3, 8]: 29%; LPS % cell toxicity (primary rat microglia [4]): 0%; Fibrin % inhibition ([5]; compounds at 10 μM): 20%
18 | C[C@]12CC[C@@H]3c4ccc(OC(=O)N(CCCl)CCCl)cc4CC[C@H]3[C@@H]1CC[C@@H]2O [Estramustine] | 16% | 1% | 8% | Q4 | 1% | 
